From ChEMBL document CHEMBL3885861, “Open TG-GATES”

Species on record: Rattus norvegicus
Test: Open TG-GATES - Regimen: Daily Repeat
Format: toxicity, organism-based, Sprague-Dawley
Parameters: regimen Daily Repeat, gender Male, age 6 weeks
Settings: in vivo, po, 200 mg/kg, route gavage, dose level High; for APTT / Bas / Eos / Fbg / Hb / Ht / Lym / MCH / MCHC / MCV / Mono / Neu / PT / Plat / RBC / Ret / WBC: tissue Blood; for KIDNEY_L / KIDNEY_R / KIDNEY_TOTAL: tissue Kidney; for LIVER: tissue Liver; for A/G / ALP / ALT / AST / BUN / CRE / Ca / Cl / DBIL / GLC / IP / K / LDH / Na / PL / RALB / TBIL / TC / TG / TP / gamma-GTP: tissue Plasma

For `CC(CN1c2ccccc2Sc2ccccc21)N(C)C` (configuration not stated) [PROMETHAZINE], the TERMINAL_BW (72 h, time 3 day) was 194.8 g, the APTT (72 h, time 3 day) was 23.9 s and the Bas (72 h, time 3 day) was 0%. For the same molecule, the Eos (72 h, time 3 day) was 0.8%, the Fbg (72 h, time 3 day) was 333.2 mg/dL and the Hb (72 h, time 3 day) was 15 g/dL. For the same molecule, the Ht (72 h, time 3 day) was 44.4%, the Lym (72 h, time 3 day) was 74.6% and the MCH (72 h, time 3 day) was 20.7 pg. The MCHC (72 h, time 3 day) was 33.7%, the MCV (72 h, time 3 day) was 61.6 fL and the Mono (72 h, time 3 day) was 2.8%. It also gave a Neu (72 h, time 3 day) of 21%, a PT (72 h, time 3 day) of 16.6 s and a Plat (72 h, time 3 day) of 130.8 x10_4/uL. It also gave an RBC (72 h, time 3 day) of 722.2 x10_4/ul, a Ret (72 h, time 3 day) of 4.2% and a WBC (72 h, time 3 day) of 73 x10_2/uL. It also gave a KIDNEY_L (72 h, time 3 day) of 0.9 g, a KIDNEY_R (72 h, time 3 day) of 0.9 g and a KIDNEY_TOTAL (72 h, time 3 day) of 1.8 g. It also gave an LIVER (72 h, time 3 day) of 10 g, an A/G (72 h, time 3 day) of 1.3 and an ALP (72 h, time 3 day) of 1369.6 IU/L. The ALT (72 h, time 3 day) was 46.8 IU/L, the AST (72 h, time 3 day) was 69.2 IU/L and the BUN (72 h, time 3 day) was 14.8 mg/dL. It also gave a CRE (72 h, time 3 day) of 0.2 mg/dL, a Ca (72 h, time 3 day) of 10.2 mg/dL and a Cl (72 h, time 3 day) of 107.2 meq/L. The DBIL (72 h, time 3 day) was 0.08 mg/dL, the GLC (72 h, time 3 day) was 174.6 mg/dL and the IP (72 h, time 3 day) was 8.3 mg/dL. The K (72 h, time 3 day) was 4.3 meq/L, the LDH (72 h, time 3 day) was 204.6 IU/L and the Na (72 h, time 3 day) was 142.4 meq/L. It also gave a PL (72 h, time 3 day) of 159.4 mg/dL, an RALB (72 h, time 3 day) of 3.2 g/dL and a TBIL (72 h, time 3 day) of 0.024 mg/dL. It also gave a TC (72 h, time 3 day) of 98.6 mg/dL, a TG (72 h, time 3 day) of 75.6 mg/dL and a TP (72 h, time 3 day) of 5.8 g/dL. It also gave a gamma-GTP (72 h, time 3 day) of 1.4 IU/L, a TERMINAL_BW ([…], time 7 day) of 231 g and a TERMINAL_BW ([…], time 14 day) of 258.5 g. The TERMINAL_BW ([…], time 28 day) was 339.7 g, the APTT ([…], time 7 day) was 23.3 s and the Bas ([…], time 7 day) was 0%. The Eos ([…], time 7 day) was 1%, the Fbg ([…], time 7 day) was 306.2 mg/dL and the Hb ([…], time 7 day) was 14.1 g/dL. For the same molecule, the Ht ([…], time 7 day) was 42.2%, the Lym ([…], time 7 day) was 76.4% and the MCH ([…], time 7 day) was 19.7 pg. The MCHC ([…], time 7 day) was 33.4%, the MCV ([…], time 7 day) was 59.1 fL and the Mono ([…], time 7 day) was 3.2%. The Neu ([…], time 7 day) was 18.6%, the PT ([…], time 7 day) was 15.9 s and the Plat ([…], time 7 day) was 115.2 x10_4/uL. For the same molecule, the RBC ([…], time 7 day) was 714.2 x10_4/ul, the Ret ([…], time 7 day) was 3.9% and the WBC ([…], time 7 day) was 129.8 x10_2/uL. For the same molecule, the APTT ([…], time 14 day) was 22.6 s, the Bas ([…], time 14 day) was 0% and the Eos ([…], time 14 day) was 1%. For the same molecule, the Fbg ([…], time 14 day) was 369.4 mg/dL, the Hb ([…], time 14 day) was 15 g/dL and the Ht ([…], time 14 day) was 43.8%. It also gave a Lym ([…], time 14 day) of 70.4%, an MCH ([…], time 14 day) of 19.7 pg and an MCHC ([…], time 14 day) of 34.2%. For the same molecule, the MCV ([…], time 14 day) was 57.4 fL, the Mono ([…], time 14 day) was 3.2% and the Neu ([…], time 14 day) was 24.6%. The PT ([…], time 14 day) was 16.1 s, the Plat ([…], time 14 day) was 120.6 x10_4/uL and the RBC ([…], time 14 day) was 763.2 x10_4/ul. For the same molecule, the Ret ([…], time 14 day) was 4%, the WBC ([…], time 14 day) was 105 x10_2/uL and the APTT ([…], time 28 day) was 23.6 s. It also gave a Bas ([…], time 28 day) of 0%, an Eos ([…], time 28 day) of 1% and a Fbg ([…], time 28 day) of 316.4 mg/dL. It also gave a Hb ([…], time 28 day) of 15.3 g/dL, a Ht ([…], time 28 day) of 43.5% and a Lym ([…], time 28 day) of 71.6%. For the same molecule, the MCH ([…], time 28 day) was 19.3 pg, the MCHC ([…], time 28 day) was 35.1% and the MCV ([…], time 28 day) was 55.1 fL. For the same molecule, the Mono ([…], time 28 day) was 3%, the Neu ([…], time 28 day) was 23.4% and the PT ([…], time 28 day) was 16.4 s. It also gave a Plat ([…], time 28 day) of 108 x10_4/uL, an RBC ([…], time 28 day) of 791.6 x10_4/ul and a Ret ([…], time 28 day) of 3.3%. It also gave a WBC ([…], time 28 day) of 135.4 x10_2/uL, a KIDNEY_L ([…], time 7 day) of 1 g and a KIDNEY_R ([…], time 7 day) of 1.1 g. It also gave a KIDNEY_TOTAL ([…], time 7 day) of 2.1 g, a KIDNEY_L ([…], time 14 day) of 1.1 g and a KIDNEY_R ([…], time 14 day) of 1.1 g. The KIDNEY_TOTAL ([…], time 14 day) was 2.2 g, the KIDNEY_L ([…], time 28 day) was 1.3 g and the KIDNEY_R ([…], time 28 day) was 1.3 g. The KIDNEY_TOTAL ([…], time 28 day) was 2.6 g, the LIVER ([…], time 7 day) was 14.7 g and the LIVER ([…], time 14 day) was 15.1 g. It also gave an LIVER ([…], time 28 day) of 21.1 g, an A/G ([…], time 7 day) of 1.1 and an ALP ([…], time 7 day) of 1435.2 IU/L. For the same molecule, the ALT ([…], time 7 day) was 56.4 IU/L, the AST ([…], time 7 day) was 75.4 IU/L and the BUN ([…], time 7 day) was 19.6 mg/dL. For the same molecule, the CRE ([…], time 7 day) was 0.2 mg/dL, the Ca ([…], time 7 day) was 10.9 mg/dL and the Cl ([…], time 7 day) was 104.8 meq/L. The DBIL ([…], time 7 day) was 0.004 mg/dL, the GLC ([…], time 7 day) was 179.4 mg/dL and the IP ([…], time 7 day) was 7.8 mg/dL. For the same molecule, the K ([…], time 7 day) was 4.5 meq/L, the LDH ([…], time 7 day) was 167.8 IU/L and the Na ([…], time 7 day) was 142 meq/L. The PL ([…], time 7 day) was 170.6 mg/dL, the RALB ([…], time 7 day) was 3 g/dL and the TBIL ([…], time 7 day) was 0.008 mg/dL. For the same molecule, the TC ([…], time 7 day) was 84.8 mg/dL, the TG ([…], time 7 day) was 127 mg/dL and the TP ([…], time 7 day) was 5.7 g/dL. For the same molecule, the gamma-GTP ([…], time 7 day) was 2.8 IU/L, the A/G ([…], time 14 day) was 1 and the ALP ([…], time 14 day) was 1417 IU/L. It also gave an ALT ([…], time 14 day) of 53.6 IU/L, an AST ([…], time 14 day) of 73.8 IU/L and a BUN ([…], time 14 day) of 20.6 mg/dL. The CRE ([…], time 14 day) was 0.2 mg/dL, the Ca ([…], time 14 day) was 11 mg/dL and the Cl ([…], time 14 day) was 103.2 meq/L. For the same molecule, the DBIL ([…], time 14 day) was 0.014 mg/dL, the GLC ([…], time 14 day) was 184.6 mg/dL and the IP ([…], time 14 day) was 8 mg/dL. For the same molecule, the K ([…], time 14 day) was 4.2 meq/L, the LDH ([…], time 14 day) was 249 IU/L and the Na ([…], time 14 day) was 143.4 meq/L. It also gave a PL ([…], time 14 day) of 182.4 mg/dL, an RALB ([…], time 14 day) of 3.1 g/dL and a TBIL ([…], time 14 day) of 0.018 mg/dL. It also gave a TC ([…], time 14 day) of 99 mg/dL, a TG ([…], time 14 day) of 117.2 mg/dL and a TP ([…], time 14 day) of 6.1 g/dL. It also gave a gamma-GTP ([…], time 14 day) of 3.4 IU/L, an A/G ([…], time 28 day) of 1 and an ALP ([…], time 28 day) of 1191.4 IU/L. It also gave an ALT ([…], time 28 day) of 54.6 IU/L, an AST ([…], time 28 day) of 66 IU/L and a BUN ([…], time 28 day) of 21.2 mg/dL. The CRE ([…], time 28 day) was 0.2 mg/dL, the Ca ([…], time 28 day) was 10.8 mg/dL and the Cl ([…], time 28 day) was 104.2 meq/L. For the same molecule, the DBIL ([…], time 28 day) was 0.008 mg/dL, the GLC ([…], time 28 day) was 175.2 mg/dL and the IP ([…], time 28 day) was 6.8 mg/dL. It also gave a K ([…], time 28 day) of 4.1 meq/L, an LDH ([…], time 28 day) of 146 IU/L and a Na ([…], time 28 day) of 142.8 meq/L. For the same molecule, the PL ([…], time 28 day) was 211.4 mg/dL, the RALB ([…], time 28 day) was 3.2 g/dL and the TBIL ([…], time 28 day) was 0.02 mg/dL. For the same molecule, the TC ([…], time 28 day) was 116.8 mg/dL, the TG ([…], time 28 day) was 136.6 mg/dL and the TP ([…], time 28 day) was 6.3 g/dL. The gamma-GTP ([…], time 28 day) was 4.2 IU/L.
